From US8436186B2, “Thiazolyl piperidine derivatives” (Merck Patent Gesellschaft mit beschrankter Haftung, priority 2008, dated 2013)

target: SphK1 (Homo sapiens, UniProt Q9NYA1); assay: SphK1 384-well flashplate kinase assay; type: biochemical; details: enzyme assay
Protocol: The kinase assay is carried out as a 384-well flashplate assay.
5 nM modified SphK1, 800 nM omega-biotinyl-D-erythro-sphingosine and 1 μM ATP (with 0.3 μCi of ^33P-ATP/well) are incubated in a total volume of 50 μl (25 mM HEPES, 5 mM MgCl2, 1 mM dithiothreitol, 0.01% of Brij35, 0.1% of BSA (fatty acid-free), pH 7.4) without or with test substance (5-10 concentrations) at 30° C. for 120 min. The reaction is terminated using 25 μl of 200 mM EDTA solution, filtered off with suction at room temperature after 30 min, and the cavities are washed 3 times with 100 μl of 0.9% NaCl solution. The non-specific proportion of the kinase reaction (blank) is determined using 0.5 mM NaCl. Radioactivity is measured in topcount. IC50 values are calculated using RS1.

Sequence of SphK1 (Q9NYA1 whole entry): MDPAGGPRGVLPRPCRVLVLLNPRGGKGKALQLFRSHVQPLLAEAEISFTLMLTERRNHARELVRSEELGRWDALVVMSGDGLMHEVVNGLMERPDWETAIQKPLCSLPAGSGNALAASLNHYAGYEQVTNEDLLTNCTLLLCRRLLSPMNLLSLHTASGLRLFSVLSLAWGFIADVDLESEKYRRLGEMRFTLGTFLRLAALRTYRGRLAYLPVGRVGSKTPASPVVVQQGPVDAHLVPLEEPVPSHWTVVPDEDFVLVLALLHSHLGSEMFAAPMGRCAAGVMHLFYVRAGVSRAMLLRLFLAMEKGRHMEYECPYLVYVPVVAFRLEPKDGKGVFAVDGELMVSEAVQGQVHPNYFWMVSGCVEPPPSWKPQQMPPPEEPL

Row | IC50 | Compound
1 | 1 to 10 µM | Cn1cnc(CN2CCC(c3nc(-c4ccc5c(c4)C(C)(C)CCC5(C)C)cs3)CC2)c1 [Compound A71]
2 | 1 to 10 µM | CC1(C)CCC(C)(C)c2cc(-c3csc(C4CCN(C(=O)[C@@H](N)CO)CC4)n3)ccc21 [Compound A64]
3 | 0.01 to 1 µM | CC1(O)CCCc2cc(-c3csc(C4CCNCC4)n3)ccc21 (centres unmarked) [Compound C2]
4 | 1 to 10 µM | CC1(C)CCC(C)(C)c2cc(-c3csc(C4CCN(CCN5CCCC5)CC4)n3)ccc21 [Compound A21]
5 | 1 to 10 µM | CC1(C)CCC(C)(C)c2cc(-c3csc(C4CCN(C(=O)NCCc5ccccn5)CC4)n3)ccc21 [Compound A43]
6 | > 10 µM | COc1ccccc1N1CCN(CCN2CCC(c3nc(-c4ccc5c(c4)C(C)(C)CCC5(C)C)cs3)CC2)CC1 [Compound A35]
7 | 0.01 to 1 µM | CC1(C)CCCc2cc(-c3csc(C4CCN(CCCCO)CC4)n3)ccc21 [Compound B3]
8 | 0.01 to 1 µM | CC1(C)CC(C)(C)c2cc(-c3csc(C4CCN(CCCCO)CC4)n3)ccc21 [Compound B6]
9 | 1 to 10 µM | Cc1cc(-c2csc(C3CCNCC3)n2)c(O)c2c1CCC2 [Compound C10]
10 | 1 to 10 µM | OC[C@@H](O)CN1CCC(c2nc(-c3ccc4c(c3)CCCC4)cs2)CC1 [Compound A14]

Second part, the molecule before the results:

Row | Compound | IC50
11 | CN1CCCC1CCN1CCC(c2nc(-c3ccc4c(c3)C(C)(C)CCC4(C)C)cs2)CC1 (centres unmarked) [Compound A5] | 1 to 10 µM
12 | CC1(C)CCC(C)(C)c2cc(-c3csc(C4CCN(C(=O)[C@@H](N)Cc5cnc[nH]5)CC4)n3)ccc21 [Compound A63, (S)-2-amino-3-(3H-imidazol-4-yl)-1-{4-[4-(5,5,8,8-tetramethyl-5,6,7,8-tetrahydronaphthalen-2-yl)thiazol-2-yl]piperidin-1-yl}-propan-1-one] | 1 to 10 µM
13 | CC1(C)CCC(C)(C)c2cc(-c3csc(C4CCN(CCCN5CCOCC5)CC4)n3)ccc21 [Compound B1] | 1 to 10 µM
14 | CC1(C)CCC(C)(C)c2cc(-c3csc(C4CCN(CCN5CCOCC5)CC4)n3)ccc21 [Compound A25] | 1 to 10 µM
15 | CC(C)NCC(O)CN1CCC(c2nc(-c3ccc4c(c3)C(C)(C)CCC4(C)C)cs2)CC1 (centres unmarked) [Compound A20] | 0.01 to 1 µM
16 | CC1(C)CCC(C)(C)c2cc(-c3csc(C4CCN(CCN)CC4)n3)ccc21 [Compound A81] | 0.01 to 1 µM
17 | Cn1ccnc1CN1CCC(c2nc(-c3ccc4c(c3)C(C)(C)CCC4(C)C)cs2)CC1 [Compound A73] | 0.01 to 1 µM
18 | CC1(C)CCC(C)(C)c2cc(-c3csc(C4CCN(C[C@H](O)CO)CC4)n3)ccc21 [Compound A22] | 0.01 to 1 µM
19 | CC1(C)CCC(C)(C)c2cc(-c3csc(C4CCN(CCO)CC4)n3)ccc21 [Compound A9] | 0.01 to 1 µM
20 | CCN(CC)C(=O)CN1CCC(c2nc(-c3ccc4c(c3)C(C)(C)CCC4(C)C)cs2)CC1 [Compound A18] | 1 to 10 µM
21 | CN(C)CC(C)(C)CN1CCC(c2nc(-c3ccc4c(c3)C(C)(C)CCC4(C)C)cs2)CC1 [Compound A76] | > 10 µM
22 | CC1(C)CCC(C)(C)c2cc(-c3csc(C4CCN(C(=O)[C@@H](N)CC(N)=O)CC4)n3)ccc21 [Compound A69] | 1 to 10 µM
23 | OC[C@H](O)CN1CCC(c2nc(-c3ccc4c(c3)CCCC4)cs2)CC1 [Compound A15] | 1 to 10 µM
